The results in this text go back to US9745291B2, “PRMT5 inhibitors containing a dihydro- or tetrahydroisoquinoline and uses thereof” (Epizyme, Inc., priority 2012, dated 2017).

A value given as a limit tells only on which side of the number the result lay.

For test [1], the system named is symmetric di-methyl arginine in Z-138 cells. The test is described as follows: Z-138 Methylation Assay (In Cell Western for symmetric di-methyl arginine and DNA content). In kind it is cell-based. The note with it: Homo sapiens, Z-138, Z-138 cells, read-out: ICW EC50. The text has this: [formula] Where top and bottom are the normally allowed to float, but may be fixed at 100 or 0 respectively in a 3-parameter fit. The Hill Coefficient normally allowed to float but may also be fixed at 1 in a 3-parameter fit. Y is the % inhibition and X is the compound concentration. Z-138 Methylation Assay
Z-138 suspension cells were purchased from ATCC (American Type Culture Collection, Manassas, Va.). RPMI/Glutamax medium, penicillin-streptomycin, heat inactivated fetal bovine serum, and D-PBS were purchased from Life Technologies, Grand Island, N.Y., USA. Odyssey blocking buffer, 800CW goat anti-rabbit IgG (H+L) antibody, and Licor Odyssey infrared scanner were purchased from Licor Biosciences, Lincoln, Nebr., USA. Symmetric di-methyl arginine antibody was purchased from EMD Millipore, Billerica, Mass., USA. 16% Paraformaldehyde was purchased from Electron Microscopy Sciences, Hatfield, Pa., USA.
Z-138 suspension cells were maintained in growth medium (RPMI 1640 supplemented with 10% v/v heat inactivated fetal bovine serum and 100 units/mL penicillin-streptomycin) and cultured at 37° C. under 5% CO2.
Cell Treatment, in Cell Western (ICW) for Detection of Symmetric Di-Methyl Arginine and DNA Content.
Z-138 cells were seeded in assay medium at a concentration of 50,000 cells per mL to a 384-well cell culture plate with 50 μL per well. Compound (100 nL) from 384 well source plates was added directly to 384 well cell plate. Plates were incubated at 37° C., 5% CO2 for 96 hours. After four days of incubation, 40 μL of cells from incubated plates were added to poly-D-lysine coated 384 well culture plates (BD Biosciences 356697). Plates were incubated at room temperature for 30 minutes then incubated at 37° C., 5% CO2 for 5 hours. After the incubation, 40 μL per well of 8% paraformaldehyde in PBS (16% paraformaldahyde was diluted to 8% in PBS) was added to each plate and incubated for 30 minutes. Plates were transferred to a Biotek 405 plate washer and washed 5 times with 100 μL per well of wash buffer (1×PBS with 0.1% Triton X-100 (v/v)). Next 30 μL per well of Odyssey blocking buffer were added to each plate and incubated 1 hour at room temperature. Blocking buffer was removed and 20 μL per well of primary antibody was added (symmetric di-methyl arginine diluted 1:100 in Odyssey buffer with 0.1% Tween 20 (v/v)) and plates were incubated overnight (16 hours) at 4° C. Plates were washed 5 times with 100 μL per well of wash buffer. Next 20 μL per well of secondary antibody was added (1:200 800CW goat anti-rabbit IgG (H+L) antibody, 1:1000 DRAQ5 (Biostatus limited) in Odyssey buffer with 0.1% Tween 20 (v/v)) and incubated for 1 hour at room temperature. The plates were washed 5 times with 100 μL per well wash buffer then 1 time with 100 μL per well of water. Plates were allowed to dry at room temperature then imaged on the Licor Odyssey machine which measures integrated intensity at 700 nm and 800 nm wavelengths. Both 700 and 800 channels were scanned.
First, the ratio for each well was determined by:
Each plate included fourteen control wells of DMSO only treatment (minimum inhibition) as well as fourteen control wells for maximum inhibition treated with 3 μM of a reference compound (Background wells). The average of the ratio values for each control type was calculated and used to determine the percent inhibition for each test well in the plate. Reference compound was serially diluted three-fold in DMSO for a total of nine test concentrations, beginning at 3 μM. Percent inhibition was determined and IC50 curves were generated using triplicate wells per concentration of compound. […]

Another test concerns Z-138 cell line. The test can be described thus: Z-138 Proliferation Assay (Cell Titer Glo, 5 days). In kind it is cell-based. To be noted: Homo sapiens, Z-138, 120 h, Z-138 cells. The text has this: [formula] Z-138 Proliferation Assay
Z-138 suspension cells were purchased from ATCC (American Type Culture Collection, Manassas, Va.). RPMI/Glutamax medium, penicillin-streptomycin, heat inactivated fetal bovine serum were purchased from Life Technologies, Grand Island, N.Y., USA. V-bottom polypropylene 384-well plates were purchased from Greiner Bio-One, Monroe, N.C., USA. Cell culture 384-well white opaque plates were purchased from Perkin Elmer, Waltham, Mass., USA. Cell-Titer Glo® was purchased from Promega Corporation, Madison, Wis., USA. SpectraMax M5 plate reader was purchased from Molecular Devices LLC, Sunnyvale, Calif., USA.
Z-138 suspension cells were maintained in growth medium (RPMI 1640 supplemented with 10% v/v heat inactivated fetal bovine serum and cultured at 37° C. under 5% CO2 Under assay conditions, cells were incubated in assay medium (RPMI 1640 supplemented with 10% v/v heat inactivated fetal bovine serum and 100 units/mL penicillin-streptomycin) at 37° C. under 5% CO2.
For the assessment of the effect of compounds on the proliferation of the Z-138 cell line, exponentially growing cells were plated in 384-well white opaque plates at a density of 10,000 cells/ml in a final volume of 50 μl of assay medium. A compound source plate was prepared by performing triplicate nine-point 3-fold serial dilutions in DMSO, beginning at 10 mM (final top concentration of compound in the assay was 20 μM and the DMSO was 0.2%). A 100 nL aliquot from the compound stock plate was added to its respective well in the cell plate. […] After addition of compounds, assay plates were incubated for 5 days at 37° C., 5% CO2, relative humidity >90%.
Cell viability was measured by quantitation of ATP present in the cell cultures, adding 35 μl of Cell Titer Glo® reagent to the cell plates. Luminescence was read in the SpectraMax M5 microplate reader. The concentration of compound inhibiting cell viability by 50% was determined using a 4-parametric fit of the normalized dose response curves.

For the next test, the target named is PRMT5/MEP50 (Homo sapiens (Human), UniProt O14744). The test is described as follows: PRMT5 Biochemical Assay (PRMT5/MEP50 enzyme assay on peptide substrate, 3H-SAM Flashplate). To be noted: PRMT5 biochemical assay; read-out: Biochemical IC50.
Sequence of PRMT5/MEP50 (O14744 other isoform, or with tags, fused parts or gaps): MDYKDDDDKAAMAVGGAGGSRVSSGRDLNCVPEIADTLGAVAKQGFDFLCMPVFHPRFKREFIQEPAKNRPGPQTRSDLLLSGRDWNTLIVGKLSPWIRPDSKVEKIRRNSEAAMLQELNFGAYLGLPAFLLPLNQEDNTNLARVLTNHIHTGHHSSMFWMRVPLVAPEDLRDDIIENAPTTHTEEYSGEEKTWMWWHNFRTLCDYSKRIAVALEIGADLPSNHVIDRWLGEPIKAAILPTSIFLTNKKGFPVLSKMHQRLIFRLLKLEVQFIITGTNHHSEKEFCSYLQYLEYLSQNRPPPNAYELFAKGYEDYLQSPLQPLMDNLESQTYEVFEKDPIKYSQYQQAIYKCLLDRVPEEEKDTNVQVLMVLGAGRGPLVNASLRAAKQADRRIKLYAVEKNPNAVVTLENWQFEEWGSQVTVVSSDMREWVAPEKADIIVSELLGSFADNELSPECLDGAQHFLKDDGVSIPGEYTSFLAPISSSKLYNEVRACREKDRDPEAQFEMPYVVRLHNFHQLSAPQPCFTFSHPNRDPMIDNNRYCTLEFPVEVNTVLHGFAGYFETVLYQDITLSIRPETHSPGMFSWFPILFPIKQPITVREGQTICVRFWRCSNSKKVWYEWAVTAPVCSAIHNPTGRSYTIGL
Sequence of PRMT5/MEP50 (Q9BQA1 other isoform, or with tags, fused parts or gaps partner): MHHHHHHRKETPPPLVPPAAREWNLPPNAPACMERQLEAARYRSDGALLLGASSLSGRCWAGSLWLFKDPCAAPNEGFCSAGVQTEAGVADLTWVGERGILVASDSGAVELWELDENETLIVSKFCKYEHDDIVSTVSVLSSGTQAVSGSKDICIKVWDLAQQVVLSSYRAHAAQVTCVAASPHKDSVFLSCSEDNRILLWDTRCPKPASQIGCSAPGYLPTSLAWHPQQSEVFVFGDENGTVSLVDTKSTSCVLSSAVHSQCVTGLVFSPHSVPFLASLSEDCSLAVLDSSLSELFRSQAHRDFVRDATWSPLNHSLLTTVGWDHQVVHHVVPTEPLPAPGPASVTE

Turning to `O=C(COc1cccc2cccnc12)NC[C@H](O)CN1CCc2ccccc2C1` [Compound 44, (S)—N-(3-(3,4-dihydroisoquinolin-2(1H)-yl)-2-hydroxypropyl)-2-(quinolin-8-yloxy)acetamide], in test [1], the EC50 was in the range of 101 to 1000 nM.
As for `O=C(COc1ccccc1C1CCCNC1)NCC(O)CN1CCc2ccccc2C1` (stereo not drawn) [Compound 117], the EC50 in test [1] was in the range of 101 to 1000 nM; with Z-138 cell line, 1 to 10 µM.
Turning to `O=C(COc1cccc(-n2ccnc2)c1)NC[C@@H](O)CN1CCc2ccccc2C1` [Compound 194], the values for the half-maximal effective concentration (EC50) (in test [1]; in the test with Z-138 cell line) were above 1000 nM and above 20 µM, respectively. On PRMT5/MEP50, the IC50 fell in the range of 101 to 1000 nM.
On to `O=C(COc1cccc(-c2c[nH]cn2)c1)NC[C@@H](O)CN1CCc2ccccc2C1` [Compound 195], for which the values for the concentration giving a half-maximal response (EC50) (in test [1]; in the test on Z-138 cell line) were above 1000 nM and above 20 µM, respectively. On PRMT5/MEP50, the IC50 is 1000 to 10000 nM.
As for `O=C(COc1cccc(C(=O)NCCNCCO)c1)NC[C@@H](O)CN1CCc2ccccc2C1` [Compound 196], the values for the EC50 (in test [1]; with Z-138 cell line) were above 1000 nM and above 20 µM, respectively. In addition, the half-inhibitory concentration (IC50) at PRMT5/MEP50 was in the range of 101 to 1000 nM.
With `O=C(COc1cccc(N2CCNCC2)c1)NC[C@@H](O)CN1CCc2ccccc2C1` [Compound 197], the EC50 in test [1] was 101 to 1000 nM; in the test with Z-138 cell line it was 10 to 50 µM. For the same compound, the IC50 on PRMT5/MEP50 is below 100 nM.
For the compound `CN(CCN)S(=O)(=O)c1ccccc1OCC(=O)NC[C@@H](O)CN1CCc2ccccc2C1` [Compound 198], the concentration for a half-maximal effect (EC50) in test [1] is above 1000 nM; with Z-138 cell line it was above 20 µM. The IC50 at PRMT5/MEP50 was below 100 nM.
Regarding `CC(=O)Nc1cccc(OCC(=O)NC[C@@H](O)CN2CCc3ccccc3C2)c1C1CCCNC1` (stereo partly drawn) [Compound 199], the EC50 is above 1000 nM in test [1] and above 20 µM with Z-138 cell line. For the same compound, at PRMT5/MEP50, the IC50 fell in the range of 1000 to 10000 nM.
On the same counts, the results for `O=C(CCc1nc2ccccc2o1)NC[C@@H](O)CN1CCc2ccccc2C1` [Compound 200] are above 1000 nM, above 20 µM and 1000 to 10000 nM.
On to `CNCCN(C)S(=O)(=O)c1ccccc1OCC(=O)NC[C@@H](O)CN1CCc2ccccc2C1` [Compound 201], for which the figures for the half-maximal effective concentration (EC50) (in test [1]; in the test on Z-138 cell line) were below 100 nM and 1 to 10 µM, respectively. Moreover, the IC50 at PRMT5/MEP50 is below 100 nM.
On to `CC1CNCCN1S(=O)(=O)c1ccccc1OCC(=O)NC[C@@H](O)CN1CCc2ccccc2C1` (stereo partly drawn) [Compound 202], for which the concentration for a half-maximal effect (EC50) lay within 101 to 1000 nM in test [1] and 10 to 50 µM with Z-138 cell line. Further, the concentration for half-maximal inhibition (IC50) on PRMT5/MEP50 was below 100 nM.
Consider `CC1CN(C)CCN1S(=O)(=O)c1ccccc1OCC(=O)NC[C@@H](O)CN1CCc2ccccc2C1` (stereo partly drawn) [Compound 203], for which the results for the EC50 (in test [1]; in the test on Z-138 cell line) were 101 to 1000 nM and above 20 µM, respectively. The IC50 on PRMT5/MEP50 was 101 to 1000 nM.
For `CC(Oc1ccccc1[C@@H]1CCCNC1)C(=O)NC[C@@H](O)CN1CCc2ccccc2C1` (stereo partly drawn) [Compound 204], the EC50 in test [1] is above 1000 nM; with Z-138 cell line it was 10 to 50 µM. Also, the IC50 at PRMT5/MEP50 lay within 101 to 1000 nM.
`CC(Oc1ccccc1[C@H]1CCCNC1)C(=O)NC[C@@H](O)CN1CCc2ccccc2C1` (stereo partly drawn) [Compound 205]: the EC50 in test [1] is above 1000 nM; with Z-138 cell line, 10 to 50 µM. Further, the IC50 at PRMT5/MEP50 was 1000 to 10000 nM.
